Data on 18 compounds can be found in patent US6380254B2, “Method and composition for treating and preventing pathogenic effects caused by intracellular calcium overload” (Leigh Biotechnology, Inc., priority 1994, dated 2002).

Like-named read-outs stand apart in the source and are kept apart here.

Holding throughout (format): cell-based, rat
Experiment [1] deals with Hepatocytes. As to the kind of experiment: Viability of post-anaerobic hepatocytes (fraction of cytosolic lactate dehydrogenase retained intracellularly). The note with it: for viability at 5000 µM: Rattus norvegicus, Hepatocyte, 1.5 h, read-out: SURVIVING FRACTION; for MEAN SURVIVING FRACTION: glycine 20 mM, mixture less than 5 mM total, 90 min anaerobic then 90 minute aerobic incubation, untreated .384. As to the method: Both perfusates were introduced in situ at a rate of 20 ml/minute. The liver was dispersed by several passages through a glass pipette tip (4 mm aperture), subsequently filtered through two layers of a 250 micron Nylon mesh, and diluted in 50 ml of a chilled suspension medium of the BSS containing 1.3 mM CaCl2, 1.3 mM MgCl2, 20 mM glucose, and 5 mM pyruvate. The crude suspension was purified by differential centrifugation (100 g per 2 minutes).
The purified cell suspension, consisting primarily of liver parenchymal cells, was washed three times with the cold suspension medium. The final pellet was resuspended at a concentration of 20 mg cell protein (Biuret assay) per milliliter of suspension medium and incubated aerobically for one hour at 24° C. in a 50 ml polypropylene centrifuge tube mounted horizontally on the rocker tray of a shaking water bath (30 strokes per minute). At the end of this incubation period, hepatocyte viability was assessed by trypan blue exclusion.
Samples of the purified cell suspension were then transferred to two 50 ml polypropylene test tubes. One of these tubes was purged of oxygen by flushing the gas phase with argon and then permitting the cells to consume the residual oxygen in the medium. […] This anaerobic suspension was maintained in a 37° C.. water bath without agitation.
The other test tube was supplemented with oxygen by flushing the gas phase with pure oxygen. Diffusion of oxygen from the gas phase to this aerobic reference cell suspension was encouraged by orienting the tube in such a fashion as to maximize surface area and by gently agitating the suspension in the 37° C.. water bath. After 90 minutes, both suspension were removed from the water bath and the cells were washed two times with an ice cold suspension buffer and then resuspended in a warm, aerated suspension medium to a concentration of 10 mg cell protein.
A one milliliter sample of the anaerobic suspension was added to 4 ml of warm, aerated suspension medium containing either no additives (for the untreated cells), or a single amino carboxylic acid at a concentration of 5 mM. Cell viability was assessed in each test population at the end of a subsequent 90 minute aerobic incubation at 37° C. by measuring the fraction of cytosolic lactate dehydrogenase activity retained intracellularly.
Cell viability was assessed as the fraction of the cytosolic enzyme, lactate dehydrogenase, retained intracellularly following a 90 minute aerobic incubation. A minimum of four observations were made and recorded.
Hepatocytes were incubated anaerobically for 90 minutes, then washed and resuspended in fresh medium containing either no additives (untreated cells), trifluoperazine (25 μM), glycine (20 mM or 150 mg per 100 ml), or a mixture of amino carboxylic acids (total amino carboxylic acid concentration was less than 5 mM or 65 mg per 100 ml). Cell viability was assessed as the fraction of lactate dehydrogenase retained intracellularly following a 90 minute aerobic incubation. A minimum of four observations were made and recorded.
Hepatocytes were incubated anaerobically for 90 minutes, then washed and resuspended in fresh medium containing either no additives (for the untreated cells), neomycin sulfate (10 mM), glycine (20 mM or 150 mg per 100 ml), or the mixture of amino carboxylic acids (total amino carboxylic acid concentration was less than 5 mM or 65 mg per 100 ml). Cell viability was assessed as the fraction of lactate dehydrogenase retained intracellularly following a 90 minute aerobic incubation. A minimum of four observations were made and recorded.

The test system of experiment [2] is Hepatocytes. The experiment is described as above. The note with it: glycine 20 mM, mixture less than 5 mM total, 90 min anaerobic then 90 minute aerobic incubation.
For the next experiment, the system named is glycogen phosphorylase a. As to the kind of experiment: Intracellular calcium activity in post-anaerobic hepatocytes, expressed as glycogen phosphorylase a activity. The note with it: mmols of PO^−3 liberated from glucose-1-phosphate per 1 million viable post-anaerobic cells; chlorpromazine 25 μM, glycine 20 mM, mixture less than 5 mM total; untreated 165.5. As to the method: Kinase is stimulated by increased intracellular calcium concentration via calmodulin. […] Thera., Vol. 238, pp. 186-191, 1986. […] Cell viability was assessed as the fraction of lactate dehydrogenase retained intracellularly following a 90 minute aerobic incubation. Intracellular calcium activity was assessed in these post-anaerobic cells by the method described in Long and Moore, supra, and expressed in terms of glycogen phosphorylase a activity. […] A minimum of four observations were made and recorded.
On the technique in general: A change in cytosolic calcium serves as a functional read-out for many receptors and channels.

The mark [3] stands for this setting: single amino carboxylic acid at 5 mM, 90 min anaerobic, then 90 minute aerobic incubation at 37° C., untreated 0.25.
Setting [4] is: Table 2, chlorpromazine 25 μM, mean with standard deviation, untreated .342.
Where [5] appears, read: Table 5, alpha tocopherol succinate 100 mg per 100 ml, untreated .352.
Setting [6] is: Table 6, desferrioxamine 25 μM, untreated .363.
Setting [7] is: Table 4, neomycin sulfate 10 mM.

`N[C@@H](Cc1ccc(O)cc1)C(=O)O` [Tyrosine, tyrosine, reference compound]: the viability at 5000 µM in the experiment on Hepatocytes [1] (setting [3]) stood at 31%.
Same read-out and setting: the same measure for `O=C(O)[C@@H]1CCCN1` [Proline, proline]: 49%; for `N[C@@H](Cc1c[nH]cn1)C(=O)O` [Histidine, histidine]: 50%.
Still for that read-out and setting: the same measure for `NC(=O)C[C@H](N)C(=O)O` [Asparagine, asparagine]: 54%.
For the compound `CN(C)CCCN1c2ccccc2Sc2ccc(Cl)cc21` [Chlorpromazine, chlorpromazine, reference compound], the “MEAN SURVIVING FRACTION” value with Hepatocytes [2] (setting [4]) was “.567 ± .055”.
Consider `CC(C)C[C@H](N)C(=O)O` [Leucine, leucine, reference compound], for which the viability at 5000 µM in the experiment on Hepatocytes [1] (setting [3]) amounted to 32%.
Still for that read-out and setting: to `CC(C)[C@H](N)C(=O)O` [Valine, valine, reference compound] belongs 28%.
On to `N[C@@H](CCC(=O)O)C(=O)O` [Glutamic acid, glutamic acid], for which the viability at 5000 µM in the experiment on Hepatocytes [1] amounted to 52%.
For the compound `NCC(=O)O` [Glycine, glycine], in the experiment with glycogen phosphorylase a, the “GLYCOGEN PHOSPHORYLASE A ACTIVITY” value is reported as 124.8 ± 22.9 mmols. For the same compound, the “MEAN SURVIVING FRACTION” value is “.698 ± .065” in the experiment with Hepatocytes [2] (setting [4]); “.749 ± .020” in the experiment with Hepatocytes [2] (setting [5]); “.696 ± .038” in the experiment on Hepatocytes [2] (setting [6]); “.739 ± .014” with Hepatocytes [1] (Table 3, trifluoperazine 25 μM); “.694 ± .033” with Hepatocytes [1] (setting [7]). Besides, the viability at 5000 µM in the experiment on Hepatocytes [1] (setting [3]) came to 53%.
`Cc1c(C)c2c(c(C)c1O)CC[C@@](C)(CCC[C@H](C)CCC[C@H](C)CCCC(C)C)O2` [alpha-tocopherol, reference compound]: in the experiment with Hepatocytes [2] (setting [5]), the “MEAN SURVIVING FRACTION” value was “.421 ± .087”.
As for `CN1CCN(CCCN2c3ccccc3Sc3ccc(C(F)(F)F)cc32)CC1` [Trifluoperazine, trifluoperazine, reference compound], the “MEAN SURVIVING FRACTION” value in the experiment on Hepatocytes [1] (Table 3, trifluoperazine 25 μM) was “.550 ± .061”.
For `NC(=O)CC[C@H](N)C(=O)O` [Glutamine, glutamine], the viability at 5000 µM in the experiment with Hepatocytes [1] (setting [3]) was 52%.
In the case of `CC(=O)N(O)CCCCCNC(=O)CCC(=O)N(O)CCCCCNC(=O)CCC(=O)N(O)CCCCCN` [Desferrioxamine, desferrioxamine, reference compound], in the experiment on Hepatocytes [2] (setting [6]), the “MEAN SURVIVING FRACTION” value was “.393 ± .029”.
Regarding `N=C(N)NCCC[C@H](N)C(=O)O` [Arginine, arginine], the viability at 5000 µM with Hepatocytes [1] was 51%.
As to neomycin sulfate [reference compound], in the experiment with Hepatocytes [1] (setting [7]), the “MEAN SURVIVING FRACTION” value was “.566 ± .043”.
For the compound `N[C@@H](CO)C(=O)O` [Serine, serine], the viability at 5000 µM in the experiment on Hepatocytes [1] (setting [3]) came to 40%.
The same measure, in the same setting: the same measure for `C[C@H](N)C(=O)O` [Alanine, alanine]: 51%; for `CC[C@H](C)[C@H](N)C(=O)O` [Isoleucine, isoleucine, reference compound]: 29%.
